One data set relates to Vero cells. Conditions: 25 mg/ml, 48 hours. The method, then:
To determine the toxicity level of the drug, all three cell lines--RK-13, Vero cells, and WISH cells--were used. In the toxicity experiments, the effect of the drug on the uninfected cell for a range of periods of time was determined. Accordingly, cultures were incubated with and without the drug. The time of exposure was from one to seven hours. A comparison was then made between the drug tested cultures and the control cultures. After each period of incubation, the cells were washed and fresh media was added to the cells. The cell viability was then determined by dividing these cultures and having them grow into new cell cultures.
At the end of the incubation period, the cultures were washed twice with sterile PBS (Dulbecco). Fresh medium was added to each of the cultures. The cultures were then incubated for an additional 24 hours.
(§1) Healthy confluent monolayer cell cultures were overlaid with 1 ml of the drug and incubated for 48 hours at 37° C. and then stained. Cell cultures with maintenance media were used as controls.

For a further data set, the system named is RK-13 cells. Conditions: 25 mg/ml, 48 hours.
In the next data set the test system is HSV-2 (333 strain). The data set is described as follows: HMB plaque inhibition in infected Vero cells (Exp. 1M-1P). The format is cell-based. The method, then:
In this experiment, 25 mg/ml HMB was tested on Vero cells infected with HSV-2. The virus control cultures, without HMB, had 705 plaque.
The number of plaque on the virus control was about 10 to 12 plaque.
In this experiment, 25 mg/ml, 20 mg/ml, and 15 mg/ml of HMB concentrations were tested on Vero cells infected with HSV-2. […] The experimental flasks had as many, or more, plaque as the control, with an average of 154 plaque for the control and 169 plaque for the HMB-treated flasks.

Data set [1] relates to Flow 1000 cells (foreskin cells). Particulars: 25 mg/ml, 48 hours. The procedure: as §1

`C[N+](C)(C)CCCCCC[N+](C)(C)C` [HMB, hexamethonium bromide]: the values for the toxicity result (in the data set with Vero cells; with RK-13 cells; in data set [1]) were “no toxicity”, “slight toxicity” and “no toxicity”, respectively. Also, the cell layer appearance result with HSV-2 (333 strain) (Exp. 1M, 25 mg/ml) was “thin cell layer”. Also, the plaque inhibition result with HSV-2 (333 strain) (Exp. 1N, 20 mg/ml, control about 10 to 12) was “complete inhibition of plaque”. For the same compound, the effect on plaque entry in the data set on HSV-2 (333 strain) (Exp. 1O, 15 mg/ml) was “did not have any effect”. Further, the average plaque number in the data set on HSV-2 (333 strain) (Exp. 1O, 15 mg/ml, control 154) is 169 plaque. The plaque formation entry in the data set on HSV-2 (333 strain) (Exp. 1O, 20 mg/ml) is recorded as “no plaque”; in the data set on HSV-2 (333 strain) (Exp. 1O, 25 mg/ml, most likely due to toxicity), “no plaque”. The toxicity to monolayer entry in the data set with HSV-2 (333 strain) (Exp. 1O, 25 mg/ml) is given as “toxic to the monolayer”. Moreover, the “inhibition of in vitro replication” value in the data set on HSV-2 (333 strain) (HMB, Example No. 1 summary) was “inhibit the in vitro replication of HSV-1 and HSV-2”.
